Tests used:
AMPA receptor = assay: Electrophysiological whole cell patch clamp experiments: potentiation of AMPA-induced current; type: cell-based, mouse; conditions: for effect on the current induced by application of 30 μM AMPA: cultured mouse neocortical neurons, voltage clamp -60 mV, AMPA 30 μM for 1 second every 45 seconds, test concentrations per FIGS. 2-8 (Cpd 21 15 μM; 22, 24, 25 10 μM; 23a 10-100 μM; 26 3 μM; 27a 0.1-100 μM); for concentration dependence of the potentiating effect: Compound 23a at 10, 30 and 100 μM, Compound 27a at 0.1-100 μM, 30 μM AMPA
Method: Electrophysiological Patch Clamp Experiments
Experiments were performed in voltage clamp using conventional whole cell patch clamp methods (see Hamill O P, Marty A, Neher E, Sakmann B & Sigworth F J: Improved patch-clamp techniques for high-resolution current recording from cells and cell-free membrane patches; Pflügers Arch. 1981 39 85–100), essentially as described Mathiesen et al. (Mathiesen C, Varming T & Jensen L H: In vivo and in vitro evaluation of AMPA receptor antagonists in rat hippocampal neurones and cultured mouse cortical neurons; Eur. J. Pharmacol. 1998 353 159–167).
The following salt solutions were used (mM): NaCl (140), KCl (4), CaCl2 (2), MgCl2 (1), Sucrose (30; Available from Fluka Chemie, Buchs, Switzerland), Tetrodotoxin (0.0003; Available from Alomone Labs, Jerusalem, Israel), Bicuculline Methiodide (0.005; Available from RBI, MA, USA) and HEPES (10, pH 7.4).
Intracellular solution (mM): CsCl (120), CsF (20), MgCl2 (2), EGTA (10), ATP (4), HEPES (10, pH=7.2).
Cell cultures: Mouse neocortical neurons were cultured essentially as described by Drejer et al. (Drejer J, Honoré T & Schousboe A: Excitatory amino acid-induced release of ^3H-GABA from cultured mouse cerebral cortex interneurons; J. Neurosci. 1987 7 2910–2916).
Briefly, the forebrains from embryonic (E17) NMRI mice were removed under sterile conditions. Pregnant (9 days) NMRI mice were obtained from Bomholtgaard Breeding and Research Center, Ry, Denmark. The tissue was chopped in 0.4 mm cubes and the triturated with trypsin (12.5 μg/ml) and DNAse (2.5 μg/ml), 15 minutes, 37° C. The cells were suspended at a concentration of 1×10^6 cells/ml in a slightly modified DMEM containing horse serum (10% (v/v)), penicillin (333 U/ml), paraaminobenzoic acid (1 μg/ml), L-glutamine (0.5 mM), insulin (0.08 U/ml) and KCl (23.8 mM). Horse serum, N2 supplement and culture media were purchased from Life Technologies (GIBCO), Roskilde, Denmark.
The cell suspension was subsequently inoculated into poly-L-lysine coated 35 mm Petri dishes (2 ml/dish). Glass coverslips (3.5 mm) were placed in the dishes before coating. After 24 hours in culture, the medium was replaced by freshly made medium containing 1% N2 supplement instead of serum.
The cells were kept in culture for 7–14 days at 37° C. (5% CO2/95% O2) before experiments were carried out.
Electronics, programs and data acquisition: The amplifier used was the EPC-9 (HEKA-electronics, Lambrect, Germany) run by a Power Macintosh G3 computer via an ITC-16 interface. Experimental conditions were set with the Pulse-software accompanying the amplifier. Data were low pass filtered and sampled directly to hard-disk at a rate of 3 times the cut-off frequency.
Pipettes and electrodes: Pipettes were pulled from borosilicate glass (Modulohm, Copenhagen, Denmark) using a horizontal electrode puller (Zeitz-Instrumente, Augsburg, Germany). The pipette resistances were 1.7–2.4 MΩ in the salt solutions used in these experiments. The pipette electrode was a chloridized silver wire, and the reference was a silverchloride pellet electrode (In Vivo Metric, Healdsburg, USA) fixed to the experimental chamber. The electrodes were zeroed with the open pipette in the bath just prior to sealing.
Experimental procedure: Coverslips were transferred to a 15 μl experimental chamber mounted on the stage of an inverted microscope (IMT-2, Olympus) supplied with Nomarski optics. The neurons were continuously superfused with extracellular saline at a rate of 2.5 ml/min. After giga-seal formation (1–5 GΩ, success-rate≈90%) the whole cell configuration was attained by suction.
The cells were held at a holding voltage of −60 mV, and at the start of each experiment the current was continuously measured for at least 30 seconds to ensure a stable leak current.
AMPA-containing solutions were delivered to the chamber through a custom-made gravity-driven flowpipe, the tip of which was placed approximately 50 μm from the cell. […]

| SMILES | melting point | effect on the current induced by application of 30 μM AMPA (AMPA receptor) | concentration dependence of the potentiating effect (AMPA receptor) |
| --- | --- | --- | --- |
| CN1CCN(S(=O)(=O)c2ccc3c(c2)S(=O)(=O)NC(C2CCCC2)C3)CC1.Cl (racemic) | 234 to 236 °C | – | – |
| Cc1cc2c(cc1S(=O)(=O)N1CCN(C)CC1)S(=O)(=O)NC(C1CCCC1)C2.Cl (racemic) | 251 °C (dec.) | – | – |
| O=S1(=O)NC(C2CCCCC2)Cc2ccc(S(=O)(=O)N3CCCCC3)cc21 (racemic) [Compound 21, (3RS)-3-Cyclohexyl-7-(piperidine-1-sulfonyl)-3,4-dihydro-2H-benzo[e][1,2]thiazine-1,1-dioxide] | – | potentiate the current induced by application of 30 μM AMPA | – |
| O=S1(=O)NC(C2CCCC2)Cc2ccc(S(=O)(=O)N3CCCCC3)cc21 (racemic) [Compound 22, (3RS)-3-Cyclopentyl-7-(piperidine-1-sulfonyl)-3,4-dihydro-2H-benzo[e][1,2]thiazine-1,1-dioxide] | – | potentiate the current induced by application of 30 μM AMPA | – |
| CN1CCN(S(=O)(=O)c2ccc3c(c2)S(=O)(=O)NC(C2CCCC2)C3)CC1 (racemic) [Compound 23a, (3RS)-3-Cyclopentyl-7-(4-methyl-piperazine-1-sulfonyl)-3,4-dihydro-2H-benzo[e][1,2]thiazine-1,1-dioxide] | – | potentiate the current induced by application of 30 μM AMPA | concentration-dependent |
| CN1CCN(S(=O)(=O)c2ccc3c(c2)S(=O)(=O)NC(C2CCCCC2)C3)CC1 (racemic) [Compound 24, (3RS)-3-Cyclohexyl-7-(4-methyl-piperazine-1-sulfonyl)-3,4-dihydro-2H-benzo[e][1,2]thiazine-1,1-dioxide] | – | potentiate the current induced by application of 30 μM AMPA | – |
| Cc1cc2c(cc1S(=O)(=O)N1CCCCC1)S(=O)(=O)NC(C1CCCC1)C2 (racemic) [Compound 25, (3RS)-3-Cyclopentyl-6-methyl-7-(piperidine-1-sulfonyl)-3,4-dihydro-2H-benzo[e][1,2]thiazine-1,1-dioxide] | – | potentiate the current induced by application of 30 μM AMPA | – |
| Cc1cc2c(cc1S(=O)(=O)N1CCOCC1)S(=O)(=O)NC(C1CCCC1)C2 (racemic) [Compound 26, (3RS)-3-Cyclopentyl-6-methyl-7-(morpholine-4-sulfonyl)-3,4-dihydro-2H-benzo[e][1,2]thiazine-1,1-dioxide] | – | potentiate the current induced by application of 30 μM AMPA | – |
| Cc1cc2c(cc1S(=O)(=O)N1CCN(C)CC1)S(=O)(=O)NC(C1CCCC1)C2 (racemic) [Compound 27a, (3RS)-3-Cyclopentyl-6-methyl-7-(4-methyl-piperazine-1-sulfonyl)-3,4-dihydro-2H-benzo[e][1,2]thiazine-1,1-dioxide] | – | potentiate the current induced by application of 30 μM AMPA | concentration-dependent |

From patent US7199118B2, “Benzothiazine derivatives, their preparation and use” (NeuroSearch A/S, priority 2001, dated 2007)
